# B1: CHLFLQPQVGTPPPHTASARAPSGPPHPHESCPAGRRPARAAQTCARRQHGLPGCEEAGTARVPSLHLHLHQAALGAGRGRGWGEACAQVPPSRG (peptide, listed as Homo sapiens)
# chain: CHLFLQPQVGTPPPHTASARAPSGPPHPHESCPAGRRPARAAQTCARRQHGLPGCEEAGTARVPSLHLHLHQAALGAGRGRGWGEACAQVPPSRG
# notes: RECQL4 alternative splicing
# B2: VPFRELKNVSVLEGLRQGRLGGPCSCHCPRPSQARLTPVDVAGPFLCLGDPGLFPPVKSSI (peptide, listed as Homo sapiens)
# chain: VPFRELKNVSVLEGLRQGRLGGPCSCHCPRPSQARLTPVDVAGPFLCLGDPGLFPPVKSSI
# notes: CPNE7 alternative splicing
# B3: VPFRELKNQRTAQGAPGIHHAASPVAANLCDPARHAQHTRIPCGAGQVRAGRGPEAGGGVLQPQRPAPEKPGCPCRRGQPRLHTVKMWRA (peptide, listed as Homo sapiens)
# chain: VPFRELKNQRTAQGAPGIHHAASPVAANLCDPARHAQHTRIPCGAGQVRAGRGPEAGGGVLQPQRPAPEKPGCPCRRGQPRLHTVKMWRA
# notes: CPNE7 alternative splicing
# Tested on: CD8+ and CD4+ T cells (autologous CD3+ Pan-T cells isolated from human normal PBMCs)
# Assay: Exogenous autologous normal donor restimulation assay (15-mer overlapping peptide pools on CD1c+ dendritic cells, TNFα/IFNγ flow cytometry)
# Format: cell-based
# Settings: 15-mer overlapping peptide pool; for Max. Fold Change over background CD4+ TNFαINFγ double positive DP / Max. Fold Change over background CD8+ TNFαINFγ double positive DP / Max. Frequency of CD4+ TNFαINFγ DP / Max. Frequency of CD8+ TNFαINFγ DP: Table 28, additional neoantigens, highest across normal donors; for Maximum Fold Change Over Background CD4+ cells / Maximum Fold Change Over Background CD8+ cells / Maximum Frequency of TNFα/IFNγ Double Positive CD4+ T cells / Maximum Frequency of TNFα/IFNγ Double Positive CD8+ T cells: Table 25; for Maximum Fold Change Over Background CD4+ cells: TNFα+IFNγ+ CD4+ T cells; for Maximum Fold Change Over Background CD4+ cells / Maximum Fold Change Over Background CD8+ cells: highest fold change over negative control across normal donors; for Maximum Fold Change Over Background CD8+ cells: TNFα+IFNγ+ CD8+ T cells; for Maximum Frequency of TNFα/IFNγ Double Positive CD4+ T cells / Maximum Frequency of TNFα/IFNγ Double Positive CD8+ T cells: highest frequency across normal donors
# Method: CD1c+ Dendritic Cells (DC) isolated from human normal PBMCs were thawed using media (IMDM (Gibco) supplemented with glutamine, HEPES, 5% human serum (Sigma), and 1× Pen-Strep). DC cells were resuspended in media supplemented with IL-4 (Peprotech, 80 ng/mL) and GM-CSF (Gibco, 80 ng/mL), plated in 6 well microplates, and rested overnight at 37° C. (5% CO2). The following day, DC cells were counted and plated in a 96 well round bottom microplate at a concentration of 30,000 viable cells per well. Lyophilized peptides (15-mer overlapping peptides) were solubilized in 100% DMSO and pooled by neoantigen to between 5 mg/mL and 20 mg/mL. Neoantigen peptides pools were added to DCs for a final concentration of […] and rested for 2 hours at 37° C. (5% CO2). CEF Peptide Pool “Plus” (Cellular Technologies, Ltd.) was utilized as a positive control and DMSO at the same final concentration as the experimental peptides was utilized as a negative control. After 2 hours, DC cells were irradiated with 50 gray of ionizing radiation. Autologous CD3+ Pan-T cells isolated from human normal PBMCs were thawed using media. Following irradiation, autologous Pan-T cells were added to the irradiated DCs at 300,000 viable cells per well. Human IL-15 (Peprotech) was added to all wells at final concentration of 10 ng/mL.
# Plates were incubated at 37° C. (5% CO2) for a total of 12 days. Media was refreshed every 2-3 days with IL-15 (10 ng/mL final concentration) and IL-2 (R&D systems, 10 IU/mL final concentration). On day 11 cells were re-stimulated with identical experimental peptide pools or controls, at same concentration as peptide stimulation on Day 1. Protein Inhibitor Cocktail (eBioscience) was added to every well and plate was incubated overnight at 37° C. (5% CO2).
# On day 12, cells were stained for intracellular flow cytometry analysis. The cells were washed with PBS and stained with Live/Dead Fixable Aqua Dead Cell stain (Thermo-Fisher). Following the live/dead stain, cells were blocked using Biotin-Free Fc Receptor Blocker (Accurate Chemical & Scientific Corp). Extracellular cellular flow panel (1 μL/antibody per well in 50 μL) consisted of CD3 PerCP-Cy5.5 (Biolegend), CD4 BV421 (Biolegend), and CD8 APC-Cy7 (Biolegend). After extracellular staining, cells were fixed using Foxp3/fTranscription Factor Staining Buffer Set (eBioscience) and stained for intracellular proteins (1:50 dilution) using TNFα FITC (R&D Systems) and IFNγ BV785 (Biolegend). Cells were washed and resuspended in stain buffer and analyzed using a BD Celesta flow cytometer.
# Flow cytometry cell staining analysis was completed using FlowJo v10. Cells were gated on live, singlet, CD3+ cells. The CD8+ and CD4+ T cells were analyzed for TNFα/IFNγ expression and the frequency of double positive TNFα/IFNγ CD8+ and the frequency of double positive TNFα/IFNγ CD4+ T cells were recorded. Responses were assessed to be positive when the frequency of double positive TNFα/IFNγ CD8+ or TNFα/IFNγ CD4+ T cells due to stimulation with an experimental peptide pool was increased greater than or equal to 3-fold over the DMSO only negative control for that donor and at least 0.01%.
# (§1) Overlapping 15-mer peptides were designed to span each neoantigen incorporated into NeoGAd20 and NeoMVA to assess their ability to activate T cells using the exogenous autologous normal donor restimulation assay described in Example 1 as pools using TNFα and IFNγ production by CD8^+ and CD4^+ T cells as a readout.
# as §1, with “Immunogenicity of various additional identified neoantigens was assessed. Overlapping” for “Overlapping”, “similarly to what was done in Example 11” for “incorporated into NeoGAd20 and NeoMVA”
Molecule,Max. Fold Change over background CD4+ TNFαINFγ double positive DP,Max. Fold Change over background CD8+ TNFαINFγ double positive DP,Max. Frequency of CD4+ TNFαINFγ DP,Max. Frequency of CD8+ TNFαINFγ DP,Maximum Fold Change Over Background CD4+ cells,Maximum Fold Change Over Background CD8+ cells,Maximum Frequency of TNFα/IFNγ Double Positive CD4+ T cells,Maximum Frequency of TNFα/IFNγ Double Positive CD8+ T cells
MS5 (EFSPETCAFRLS; listed as Homo sapiens),126.05,32.89,0.2,1.95,–,–,–,–
P27 (LHPQRETFTPRWSGANYWKLAFPVGAEGTFPAAATQRGVVRPA; listed as Homo sapiens) [Neoantigen P27],45.38,7.87,0.05,0.59,–,–,–,–
"GMECTLGQVGAPSPRREEDGWRGGHSRFKADVPAPQGPCWGGQPGSAPSSAPPEQSLLD (listed as Homo sapiens) [AS51, CPNE7 alternative splicing]",–,–,–,–,8.75,33.13,0.140,0.530
"FVQGKDWGVKKFIRRDF (listed as Homo sapiens) [Neoantigen M12, SPOP F133V]",–,–,–,–,8.94,6.67,0.05,0.12
MS9 (SALSGNSWV; listed as Homo sapiens),455.63,1.38,1.72,0.1,–,–,–,–
MS4 (SYFSLTNIFNFV; listed as Homo sapiens),367.35,24.13,2.43,0.76,–,–,–,–
"LQERMELLACGAERGAGGWGGGGGGGGGDRRGGGGSAPALADFAGGRG (listed as Homo sapiens) [FUS24, DMPK->SIX5 gene fusion]",4.4,8.53,0.05,0.64,–,–,–,–
"QPDSFAALHSSLNELGE (listed as Homo sapiens) [Neoantigen M86, AR L702H]",–,–,–,–,6.18,4.22,0.05,0.08
RTALTHNQDFSIYRLCCKRGSLCHASQARSPAFPKPVRPLPAPITRITPQLGGQSDSSQPLLTTGRPQGWQDQALRHTQQASPASCATITIPIHSAALGDHSGDPGPAWDTCPPLPLTTLIPRAPPPYGDSTARSWPSRCGPLG [MS3],–,–,–,–,13.61,36.15,0.09,0.47
"DCMLSEEGGQARRGGSLCSLAAHTIASAARGRFLSRLSNFCAVVKASRGAPSCTWE (listed as Homo sapiens) [AS40, LRRC45 alternative splicing]",15.34,178.52,0.89,2.41,–,–,–,–
"KIQNKNCPD (listed as Homo sapiens) [AS23, ZNF614 alternative splicing]",–,–,–,–,5.08,3.24,0.01,0.07
"KMHFSLKEHPPPPCPP (listed as Homo sapiens) [FUS19, GTF2F1->PSPN gene fusion]",–,–,–,–,3.15,1.88,0.013,0.030
"FKKFDGPCGERGGGRTARALWARGDSVLTPALDPQTPVRAPSLTRAAAAV (listed as Homo sapiens) [AS47, AGRN alternative splicing]",–,–,–,–,2.58,4.80,0.031,0.240
"KWNKNWTATLGALTIRGHKLLCHLPHLLSSVQQTCRSSSR (listed as Homo sapiens) [AS46, SERINC5 alternative splicing]",157.98,11.6,0.29,0.87,–,–,–,–
"FVQGKDWGLKKFIRRDF (listed as Homo sapiens) [Neoantigen M10, SPOP F133L]",–,–,–,–,14.14,1.89,0.1,0.09
"KEQILAVASLVSSQSIHPSWGQSPLSRI (listed as Homo sapiens) [FUS9, AP5S1->MAVS gene fusion]",203.97,1.82,0.77,0.07,–,–,–,–
"FARKMLEKVHRQHLQLSHNSQE (listed as Homo sapiens) [AS12, EVPL alternative splicing]",7.32,6.03,0.28,0.19,–,–,–,–
P97 (GYLRMQGLMAQRLLLR; listed as Homo sapiens) [Neoantigen P97],3.14,7.47,0.12,1.11,–,–,–,–
B1,–,–,–,–,7.51,19.47,0.04,0.74
B2,–,–,–,–,5.67,28.75,0.040,0.460
B3,–,–,–,–,2.98,5.11,0.03,0.07
